The values that follow come from patent EP4806891A1 (Kangbaida (Sichuan) Biotechnology Co., Ltd., priority 2023, dated 2025).

This experiment concerns the target T1, HEK-Blue-hTLR9 cells (Homo sapiens, UniProt Q9NR96).
T1 construct: expressed in transfected cells; host or cells: HEK-Blue-hTLR9 cells (HEK293-derived reporter line)
T1 sequence (Q9NR96 26-1032): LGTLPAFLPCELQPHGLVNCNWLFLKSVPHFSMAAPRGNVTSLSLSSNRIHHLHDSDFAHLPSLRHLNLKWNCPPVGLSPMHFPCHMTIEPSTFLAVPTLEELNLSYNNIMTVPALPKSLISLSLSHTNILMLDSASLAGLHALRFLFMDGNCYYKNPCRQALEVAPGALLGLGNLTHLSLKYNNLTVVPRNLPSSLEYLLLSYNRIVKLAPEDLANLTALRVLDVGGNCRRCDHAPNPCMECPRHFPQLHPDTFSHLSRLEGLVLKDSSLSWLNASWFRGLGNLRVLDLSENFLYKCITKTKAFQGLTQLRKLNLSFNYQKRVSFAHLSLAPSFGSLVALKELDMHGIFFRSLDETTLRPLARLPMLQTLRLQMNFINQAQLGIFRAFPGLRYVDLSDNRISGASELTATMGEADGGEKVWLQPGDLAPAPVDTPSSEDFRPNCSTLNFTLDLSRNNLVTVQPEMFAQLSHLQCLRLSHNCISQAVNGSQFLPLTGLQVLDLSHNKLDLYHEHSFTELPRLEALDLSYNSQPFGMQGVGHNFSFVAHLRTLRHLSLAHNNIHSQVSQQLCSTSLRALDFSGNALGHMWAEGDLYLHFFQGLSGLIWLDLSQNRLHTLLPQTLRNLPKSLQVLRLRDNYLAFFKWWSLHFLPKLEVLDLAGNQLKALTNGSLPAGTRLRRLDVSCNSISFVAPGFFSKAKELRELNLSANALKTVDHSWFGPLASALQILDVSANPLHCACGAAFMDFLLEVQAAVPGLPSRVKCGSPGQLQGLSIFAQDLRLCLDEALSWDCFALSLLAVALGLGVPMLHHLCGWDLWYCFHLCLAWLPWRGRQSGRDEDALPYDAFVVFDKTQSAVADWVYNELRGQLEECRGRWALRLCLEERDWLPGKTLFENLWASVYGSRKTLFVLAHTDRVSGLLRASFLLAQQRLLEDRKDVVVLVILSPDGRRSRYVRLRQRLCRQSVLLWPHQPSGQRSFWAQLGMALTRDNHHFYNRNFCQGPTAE
Nature of the experiment: HEK-Blue-hTLR9 cell inhibition assay. The format is cell-based. To be noted: ODN2006 1 µM, 16 h, OD 620 nm, read-out: TLR9 IC50. As to the method:
HEK-Blue-hTLR7/8/9 cell inhibition assay
1. HEK-Blue-hTLR7/8 cells (1 × 10^4 cells/well) and HEK-Blue-hTLR9 cells (1.5 × 10^4 cells/well) were seeded in a 384-well cell culture plate, with a volume of 30 µL per well. The plate was incubated at 37°C in a 5% CO2 incubator for 4 h. 2. The compound was prepared with DMSO and diluted in DMEM medium to 10 concentrations (1:3 dilution), with final concentrations of 10000, 3333.3, 1111.1, 370.4, 123.5, 41.2, 13.7, 4.6, 1.5, and 0.5 nM; R848 was prepared with DMSO and diluted in DMEM medium, with final concentrations of 0.8 µM (HEK-Blue-hTLR7) and 3 µM (HEK-Blue-hTLR8); ODN2006 was prepared with endotoxin-free water and diluted in DMEM medium, with a final concentration of 1 µM. 3. Cells treated with DMSO were used as the blank control group, while cells treated solely with Resiquimod (R848) were used as the positive control group for HEK-Blue-hTLR7/8, and cells treated solely with ODN2006 were used as the positive control group for HEK-Blue-hTLR9. Cells treated with the test compound together with R848 or ODN2006 were used as the test group. Two parallel wells were set for each group and were placed at 37°C in a 5% CO2 incubator for incubation. 4. After being incubated for 4 h, the 384-well plate of HEK-Blue-hTLR7/8 was taken out from the incubator, and R848 alone or both R848 and the diluted compound were separately added into each well. The plate was placed at 37°C in a 5% CO2 incubator for incubation for 16 h; the 384-well plate of HEK-Blue-hTLR9 was taken out from the incubator, and ODN2006 alone or both ODN2006 and the diluted compound were added separately to each well. The plate was incubated at 37°C in a 5% CO2 incubator for 16 h. 5. After being incubated for 16 h, the 384-well plate was removed from the incubator and centrifuged at 1000 rpm for 1 minute. The optical density value of each well at 620 nm was measured using a multifunctional microplate reader. 6. The cell inhibition rate was calculated as (1-(OD620 test group-OD620 blank group)/(OD620 positive group-OD620 blank group))×100%, and the half maximal inhibitory concentration (IC50) was calculated through curve fitting. Table 1: Activity of the compounds of the present disclosure in HEK-Blue-hTLR7/8/9 cellular assays

Molecules are shown by their SMILES. pIC50: −log10 of the molar value.

As to `N#Cc1ccc(N2C[C@]3(c4nnc(C5CCOCC5)o4)C[C@]3(C(F)(F)F)C2)c2cccnc12` [Compound 12, 5-((1S,5R)-1-(5-(tetrahydro-2H-pyran-4-yl)-1,3,4-oxadiazol-2-yl)-5-(trifluoromethyl)-3-azabicyclo[3.1.0]hexan-3-yl)quinoline-8-carbonitrile], the pIC50 (in general, the negative decadic logarithm of the IC50, by convention in mol/L) is < 5.00.

As to `CN1CC2(CCC(c3nnc([C@]45CN(c6ccc(C#N)c7ncccc67)C[C@@]4(C(F)(F)F)C5)o3)CC2)C1` [Compound 13, 5-((1S,5R)-1-(5-(2-methyl-2-azaspiro[3.5]nonan-7-yl)-1,3,4-oxadiazol-2-yl)-5-(trifluoromethyl)-3-azabicyclo[3.1.0]hexan-3-yl)quinoline-8-carbonitrile], the negative logarithm of the IC50 (pIC50) is < 6.00.

Regarding `CN1CC2CC1CC2c1nnc([C@]23CN(c4ccc(C#N)c5ncccc45)C[C@@]2(C(F)(F)F)C3)o1` (stereo partly drawn) [Compound 14, 5-((1S,5R)-1-(5-(2-methyl-2-azabicyclo[2.2.1]heptan-5-yl)-1,3,4-oxadiazol-2-yl)-5-(trifluoromethyl)-3-azabicyclo[3.1.0]hexan-3-yl)quinoline-8-carbonitrile], the pIC50 is < 6.00.

`CN1CCC(Oc2nnc([C@]34CN(c5ccc(C#N)c6ncccc56)C[C@@]3(C(F)(F)F)C4)o2)CC1` [Compound 15, 5-((1S,5R)-1-(5-((1-methylpiperidin-4-yl)oxy)-1,3,4-oxadiazol-2-yl)-5-(trifluoromethyl)-3-azabicyclo[3.1.0]hexan-3-yl)quinoline-8-carbonitrile]: the pIC50 was < 6.00.

Turning to `N#Cc1ccc(N2C[C@]3(c4nnc(C5CCN(CC(N)=O)CC5)o4)C[C@]3(C(F)(F)F)C2)c2cccnc12` [Compound 17, 2-(4-(5-((1S,5R)-3-(8-cyanoquinolin-5-yl)-5-(trifluoromethyl)-3-azabicyclo[3.1.0]hexan-1-yl)-1,3,4-oxadiazol-2-yl)piperidin-1-yl)acetamide], the pIC50 was < 5.00.

Turning to `N#Cc1ccc(N2C[C@]3(c4nnc(C5CC6(CNC6)C5)o4)C[C@]3(C(F)(F)F)C2)c2cccnc12` [Compound 18, 5-((1S,5R)-1-(5-(2-azaspiro[3.3]heptan-6-yl)-1,3,4-oxadiazol-2-yl)-5-(trifluoromethyl)-3-azabicyclo[3.1.0]hexan-3-yl)quinoline-8-carbonitrile], the pIC50 was > 6.00.

For `CN1CC2(CC(c3nnc([C@]45CN(c6ccc(C#N)c7ncccc67)C[C@@]4(C(F)(F)F)C5)o3)C2)C1` [Compound 19, 5-((1S,5R)-1-(5-(2-methyl-2-azaspiro[3.3]heptan-6-yl)-1,3,4-oxadiazol-2-yl)-5-(trifluoromethyl)-3-azabicyclo[3.1.0]hexan-3-yl)quinoline-8-carbonitrile], the pIC50 was < 6.00.

For the compound `N#Cc1ccc(N2C[C@]3(c4nnc([C@H]5CC[C@H](N)CC5)o4)C[C@]3(C(F)(F)F)C2)c2cccnc12` [Compound 20, 5-((1S,5R)-1-(5-((1R,4S)-4-aminocyclohexyl)-1,3,4-oxadiazol-2-yl)-5-(trifluoromethyl)-3-azabicyclo[3.1.0]hexan-3-yl)quinoline-8-carbonitrile], the pIC50 is < 6.00.

`CN(C)[C@H]1CC[C@H](c2nnc([C@]34CN(c5ccc(C#N)c6ncccc56)C[C@@]3(C(F)(F)F)C4)o2)CC1` [Compound 21, 5-((1S,5R)-1-(5-((1R,4S)-4-(dimethylamino)cyclohexyl)-1,3,4-oxadiazol-2-yl)-5-(trifluoromethyl)-3-azabicyclo[3.1.0]hexan-3-yl)quinoline-8-carbonitrile]: the pIC50 is < 6.00.

On to `N#Cc1ccc(N2C[C@]3(c4nnc(C5=CCNC5)o4)C[C@]3(C(F)(F)F)C2)c2cccnc12` [Compound 22, 5-((1S,5R)-1-(5-(2,5-dihydro-1H-pyrrol-3-yl)-1,3,4-oxadiazol-2-yl)-5-(trifluoromethyl)-3-azabicyclo[3.1.0]hexan-3-yl)quinoline-8-carbonitrile], for which the pIC50 is < 5.00.

Turning to `CN1CCC(n2cnc([C@]34CN(c5ccc(C#N)c6ncccc56)C[C@@]3(C(F)(F)F)C4)n2)CC1` [Compound 23, 5-((1S,5R)-1-(1-(1-methylpiperidin-4-yl)-1H-1,2,4-triazol-3-yl)-5-(trifluoromethyl)-3-azabicyclo[3.1.0]hexan-3-yl)quinoline-8-carbonitrile], the pIC50 is < 6.00.

Turning to `N#Cc1ccc(N2C[C@]3(c4nnc(C#CCN5CCOCC5)o4)C[C@]3(C(F)(F)F)C2)c2cccnc12` [Compound 24, 5-((1S,5R)-1-(5-(3-morpholinoprop-1-yn-1-yl)-1,3,4-oxadiazol-2-yl)-5-(trifluoromethyl)-3-azabicyclo[3.1.0]hexan-3-yl)quinoline-8-carbonitrile], the pIC50 was < 5.00.

Turning to `CN(C)CC#Cc1nnc([C@]23CN(c4ccc(C#N)c5ncccc45)C[C@@]2(C(F)(F)F)C3)o1` [Compound 25, 5-((1S,5R)-1-(5-(3-(dimethylamino)prop-1-yn-1-yl)-1,3,4-oxadiazol-2-yl)-5-(trifluoromethyl)-3-azabicyclo[3.1.0]hexan-3-yl)quinoline-8-carbonitrile], the pIC50 is > 6.00.

With `CC1(C)CC(Cc2nnc([C@]34CN(c5ccc(C#N)c6ncccc56)C[C@@]3(C(F)(F)F)C4)o2)CC(C)(C)N1` [Compound 26, 5-((1S,5R)-1-(5-((2,2,6,6-tetramethylpiperidin-4-yl)methyl)-1,3,4-oxadiazol-2-yl)-5-(trifluoromethyl)-3-azabicyclo[3.1.0]hexan-3-yl)quinoline-8-carbonitrile], the pIC50 was < 6.00.

Regarding `N#Cc1ccc(N2C[C@]3(c4nnc(N5CCOCC5)o4)C[C@]3(C(F)(F)F)C2)c2cccnc12` [Compound 27, 5-((1S,5R)-1-(5-morpholino-1,3,4-oxadiazol-2-yl)-5-(trifluoromethyl)-3-azabicyclo[3.1.0]hexan-3-yl)quinoline-8-carbonitrile], the pIC50 is < 5.00.

For `CN1CCC(Oc2nnc([C@]34CN(c5ccc(C#N)n6ncc(F)c56)C[C@@]3(C(F)(F)F)C4)o2)CC1` [Compound 31, 3-fluoro-4-((1S,5R)-1-(5-((1-methylpiperidin-4-yl)oxy)-1,3,4-oxadiazol-2-yl)-5-(trifluoromethyl)-3-azabicyclo[3.1.0]hexan-3-yl)pyrazolo[1,5-a]pyridine-7-carbonitrile], the pIC50 was < 6.00.

Regarding `N#Cc1ccc(N2C[C@]3(c4nnc(C5(F)CNC5)o4)C[C@]3(C(F)(F)F)C2)c2cccnc12` [Compound 32, 5-((1S,5R)-1-(5-(3-Fluoroazetidin-3-yl)-1,3,4-oxadiazol-2-yl)-5-(trifluoromethyl)-3-azabicyclo[3.1.0]hexan-3-yl)quinoline-8-carbonitrile], the negative-log IC50 (pIC50) is < 5.00.

Take `N#Cc1ccc(N2C[C@]3(c4nnc(C5CCNCC5F)o4)C[C@]3(C(F)(F)F)C2)c2cccnc12` (stereo partly shown) [Compound 33]: the negative logarithm of the IC50 (pIC50) is < 6.00.

With `CN1CCC(c2nnc([C@]34CN(c5ccc(C#N)c6ncccc56)C[C@@]3(C(F)(F)F)C4)o2)CC1=O` (stereo partly shown) [Compound 34], the pIC50 was < 5.00.
